Experimental data reported in US11787785B2 (NOVARTIS AG, priority 2021, dated 2023).

Molecular target: T1, WIZ protein (HiBit-WIZ fusion protein) (Homo sapiens, UniProt O95785+Q96SW2)
T1 construct: expressed in transfected cells
Assay: Quantification of WIZ protein levels in HiBit tag fusion protein assay (WIZ HiBit assay in 293T cells)
Type: cell-based
Design: remaining activity / Dmax: dose or concentration left out as unconfirmed
Settings: for Dmax at 25 µM: 100 − Amax; for Dmax at 25 µM / remaining activity at 25 µM: 293T cells; for remaining activity at 25 µM: DMSO-normalized, curve-fitted percentage of WIZ-HiBit remaining at 25 uM; for DC50: WIZ HiBit assay in 293T cells, 10-point, 5-fold dose response, highest concentration 25 μM, about 18 hours, read-out: WIZ AC50
Method: The HiBit system from Promega was used to develop high-throughput and quantitative assays to measure changes in WIZ protein levels in response to compounds. The HiBit tag was derived from a split Nanoluciferase and has the following protein sequence: […] (SEQ ID NO: 1). The complementary fragment of Nanoluciferase (known as LgBit, from Promega), was added to the HiBit tag to form an active Nanoluciferase enzyme whose activity can be precisely measured. In this way, the levels of a fusion protein with the HiBit tag can be quantified in cell lysates.
Lentiviral vectors, based on the Invitrogen™ pLenti6.2/V5 DEST backbone were constructed that places the HiBit tag upstream of WIZ and expressed the fusion protein from an HSVTK promotor.
To ensure moderate and consistent expression of the HiBit-WIZ fusion protein across all cells in the population, stable cell lines were constructed from cells harboring a single copy of the construct. Lentivirus packaged with the constructs were made using the ViraPower™ kit from Invitrogen™. 293T cells from ATCC (Catalog number: CRL-3216), were infected with the virus at low multiplicity of infection and selected by 5 μg/mL blasticidin in culture media for 2 weeks.
The levels of HiBit-WIZ tagged fusion proteins in compound-treated cell lines were measured as follows:
On day 1, cells were diluted to 1.0×10^6 cells/ml in normal growth medium. 20 μL of cell suspension were plated in each well of a solid white 384-well plate. Plates were incubated overnight in a 37° C. and 5% CO2 humidified tissue culture incubator.
On day 2, serial dilutions of compounds were made in 384-well plates. Compound plates were set up with DMSO in columns 1, 2, 23, 24, and 10-point compound dilution series in column 3-12 and column 13-22. 10 mM stock solution of compound were placed into column 3 or 13 and a 1:5 serial dilution was carried out until there was a 10-point dilution series per compound. 50 nL of diluted compounds were transferred into the plated cells by Echo® (Labcyte) acoustic transfer. The highest concentration of compound was 25 μM. Plates were incubated overnight (about 18 hours) in a 37° C. and 5% CO2 humidified tissue culture incubator.
On day 3, plates were removed from the incubator and allowed to equilibrate at room temperature for 60 minutes. HiBit substrate (Nano-Glo® HiBit Lytic Detection System, Promega Catalogue number: N3050) was added as described by the manufacturers protocols. Plates were incubated at room temperature for 30 minutes and luminescence was read using an EnVision® reader (PerkinElmer®). Data was analyzed and visualized using the Spotfire® software package.
WIZ Degradation Activity of Compounds (Table 1)
WIZ Amax reflects the DMSO-normalized, curve-fitted percentage of WIZ-HiBit remaining at 25 uM. It was calculated by normalizing […] controls to 100%, parametric curve fitting of the dose response data (10-point, 5-fold), followed by calculation of response at 25 uM using the fitted equation (nd=not determined).

[1] = HEK-293T, read-out: % degradation of WIZ (100 − Amax)

T1 sequence (O95785 whole entry, the tested form may be a part): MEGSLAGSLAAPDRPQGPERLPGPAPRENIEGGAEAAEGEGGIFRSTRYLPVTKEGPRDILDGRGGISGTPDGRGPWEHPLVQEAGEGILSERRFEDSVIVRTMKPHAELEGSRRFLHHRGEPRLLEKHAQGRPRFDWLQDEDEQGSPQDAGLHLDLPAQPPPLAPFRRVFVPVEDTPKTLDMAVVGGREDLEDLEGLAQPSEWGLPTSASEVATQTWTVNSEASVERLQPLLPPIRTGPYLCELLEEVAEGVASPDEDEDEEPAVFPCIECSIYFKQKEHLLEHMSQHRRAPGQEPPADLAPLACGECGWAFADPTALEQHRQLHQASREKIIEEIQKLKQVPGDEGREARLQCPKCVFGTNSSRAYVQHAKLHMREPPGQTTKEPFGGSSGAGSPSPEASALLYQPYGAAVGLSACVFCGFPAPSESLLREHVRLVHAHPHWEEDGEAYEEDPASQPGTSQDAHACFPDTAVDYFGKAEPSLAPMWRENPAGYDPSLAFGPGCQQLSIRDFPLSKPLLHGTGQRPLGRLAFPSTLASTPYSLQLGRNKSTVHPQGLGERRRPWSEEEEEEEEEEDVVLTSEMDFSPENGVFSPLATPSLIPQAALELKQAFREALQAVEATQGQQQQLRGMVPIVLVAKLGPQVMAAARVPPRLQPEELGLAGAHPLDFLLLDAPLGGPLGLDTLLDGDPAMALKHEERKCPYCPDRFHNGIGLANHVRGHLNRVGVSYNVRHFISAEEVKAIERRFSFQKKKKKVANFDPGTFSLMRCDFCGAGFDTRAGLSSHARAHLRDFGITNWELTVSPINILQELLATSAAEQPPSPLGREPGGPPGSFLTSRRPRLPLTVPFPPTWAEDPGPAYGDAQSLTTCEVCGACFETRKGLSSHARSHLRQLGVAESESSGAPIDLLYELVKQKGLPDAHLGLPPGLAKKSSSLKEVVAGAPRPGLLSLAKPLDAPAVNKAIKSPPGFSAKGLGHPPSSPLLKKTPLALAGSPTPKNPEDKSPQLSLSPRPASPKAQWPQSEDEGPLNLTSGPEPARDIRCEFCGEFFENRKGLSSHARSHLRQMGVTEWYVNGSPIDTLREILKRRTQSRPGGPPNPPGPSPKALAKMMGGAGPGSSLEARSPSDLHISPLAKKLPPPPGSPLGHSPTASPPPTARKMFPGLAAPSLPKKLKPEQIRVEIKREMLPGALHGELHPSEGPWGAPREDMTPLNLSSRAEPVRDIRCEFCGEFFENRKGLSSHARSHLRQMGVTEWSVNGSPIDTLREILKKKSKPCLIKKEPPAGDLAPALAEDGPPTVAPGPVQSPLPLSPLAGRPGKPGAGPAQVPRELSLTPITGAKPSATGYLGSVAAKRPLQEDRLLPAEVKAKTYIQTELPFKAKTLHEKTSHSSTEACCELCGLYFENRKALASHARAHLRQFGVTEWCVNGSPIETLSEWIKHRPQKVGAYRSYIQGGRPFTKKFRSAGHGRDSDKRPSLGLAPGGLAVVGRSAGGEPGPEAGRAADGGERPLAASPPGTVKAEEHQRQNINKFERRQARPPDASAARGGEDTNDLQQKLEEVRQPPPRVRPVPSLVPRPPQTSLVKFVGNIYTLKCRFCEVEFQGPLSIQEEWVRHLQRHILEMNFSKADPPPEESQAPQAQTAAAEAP
T1 sequence (Q96SW2 whole entry, the tested form may be a part): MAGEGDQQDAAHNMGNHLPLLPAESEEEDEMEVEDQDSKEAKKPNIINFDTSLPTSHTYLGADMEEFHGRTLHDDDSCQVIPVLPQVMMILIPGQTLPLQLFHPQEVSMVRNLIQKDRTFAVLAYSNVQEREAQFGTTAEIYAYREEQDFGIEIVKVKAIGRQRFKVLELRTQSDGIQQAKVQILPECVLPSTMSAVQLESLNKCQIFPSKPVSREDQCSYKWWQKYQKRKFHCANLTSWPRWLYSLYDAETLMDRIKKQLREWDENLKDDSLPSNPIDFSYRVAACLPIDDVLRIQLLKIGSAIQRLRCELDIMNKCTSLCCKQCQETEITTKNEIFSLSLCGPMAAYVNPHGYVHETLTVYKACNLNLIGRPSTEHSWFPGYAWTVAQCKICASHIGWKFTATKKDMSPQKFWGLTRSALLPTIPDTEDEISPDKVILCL
T1 sequence (Q16531 whole entry partner, the tested form may be a part): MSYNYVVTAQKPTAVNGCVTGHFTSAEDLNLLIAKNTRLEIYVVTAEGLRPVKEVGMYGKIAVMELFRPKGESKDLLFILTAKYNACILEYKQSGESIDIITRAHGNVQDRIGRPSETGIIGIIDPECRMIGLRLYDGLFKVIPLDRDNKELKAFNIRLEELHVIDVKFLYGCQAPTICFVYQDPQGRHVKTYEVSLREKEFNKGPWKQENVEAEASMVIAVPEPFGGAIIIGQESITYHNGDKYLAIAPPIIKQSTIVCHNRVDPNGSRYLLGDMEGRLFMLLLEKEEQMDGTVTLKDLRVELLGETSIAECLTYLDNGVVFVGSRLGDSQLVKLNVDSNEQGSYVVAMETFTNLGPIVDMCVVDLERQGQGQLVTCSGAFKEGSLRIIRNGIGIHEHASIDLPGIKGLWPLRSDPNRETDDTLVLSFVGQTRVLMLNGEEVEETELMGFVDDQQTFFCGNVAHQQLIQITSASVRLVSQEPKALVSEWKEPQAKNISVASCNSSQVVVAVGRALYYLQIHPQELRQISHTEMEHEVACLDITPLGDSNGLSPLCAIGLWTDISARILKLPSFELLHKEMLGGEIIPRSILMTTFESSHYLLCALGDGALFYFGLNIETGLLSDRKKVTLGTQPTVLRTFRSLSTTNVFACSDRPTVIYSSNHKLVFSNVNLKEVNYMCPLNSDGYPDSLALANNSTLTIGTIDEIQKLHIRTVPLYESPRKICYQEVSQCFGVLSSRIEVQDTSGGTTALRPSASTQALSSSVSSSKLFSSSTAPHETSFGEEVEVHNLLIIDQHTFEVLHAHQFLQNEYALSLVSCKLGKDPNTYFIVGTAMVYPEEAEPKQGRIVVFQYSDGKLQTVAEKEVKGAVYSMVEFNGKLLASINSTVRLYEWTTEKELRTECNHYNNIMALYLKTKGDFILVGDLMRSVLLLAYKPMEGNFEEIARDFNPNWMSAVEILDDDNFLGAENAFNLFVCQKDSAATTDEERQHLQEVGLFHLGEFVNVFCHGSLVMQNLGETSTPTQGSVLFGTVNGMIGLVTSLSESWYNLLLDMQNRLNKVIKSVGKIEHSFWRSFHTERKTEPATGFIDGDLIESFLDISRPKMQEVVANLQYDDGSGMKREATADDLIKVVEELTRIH

Row | Structure (SMILES) | Dmax at 25 µM [1] | remaining activity at 25 µM (HEK-293T, read-out: WIZ Amax) | DC50 | Dmax [1] | remaining activity (HEK-293T, read-out: WIZ Amax)
1 | CN1CCCC(Cc2ccn3ncc(N4CCC(=O)NC4=O)c3c2)CC1 (stereo not drawn) [Example 271, 1-(5-((1-methylazepan-4-yl)methyl)pyrazolo[1,5-a]pyridin-3-yl)dihydropyrimidine-2,4(1H,3H)-dione] | 63% | 37% | 702 nM | – | –
2 | C[C@H]1C[C@H](Cc2ccn3ncc(N4CCC(=O)NC4=O)c3c2)CCN1CCC1CCOCC1 [Example 148] | 86% | 14% | 63 nM | – | –
3 | COCC(F)(F)CN1CCN(Cc2ccn3ncc(N4CCC(=O)NC4=O)c3c2)C[C@@H]1C [Example 328, (S)-1-(5-((4-(2,2-difluoro-3-methoxypropyl)-3-methylpiperazin-1-yl)methyl)pyrazolo[1,5-a]pyridin-3-yl)dihydropyrimidine-2,4(1H,3H)-dione] | 52% | 48% | 338 nM | – | –
4 | CCC(CC)N1CCN(Cc2ccn3ncc(N4CCC(=O)NC4=O)c3c2)CC1 [Example 164] | 69% | 31% | 323 nM | – | –
5 | O=C1CCN(c2cnn3ccc(CC4CCN(CC5(C(F)(F)F)CC5)CC4)cc23)C(=O)N1 [Example 55, 1-(5-((1-((1-(trifluoromethyl)cyclopropyl)methyl)piperidin-4-yl)methyl)pyrazolo[1,5-a]pyridin-3-yl)dihydropyrimidine-2,4(1H,3H)-dione] | 64% | 36% | 103 nM | – | –
6 | O=C1CCN(c2cnn3ccc(CN4C[C@H]5C[C@@H]4CN5CC4CCCCC4)cc23)C(=O)N1 [Example 234, 1-(5-(((1R,4R)-5-(cyclohexylmethyl)-2,5-diazabicyclo[2.2.1]heptan-2-yl)methyl)pyrazolo[1,5-a]pyridin-3-yl)dihydropyrimidine-2,4(1H,3H)-dione] | 42% | 58% | 942 nM | – | –
7 | CC(C)CN1CCC(F)(Cc2ccn3ncc(N4CCC(=O)NC4=O)c3c2)CC1 [Example 124, 1-(5-((4-fluoro-1-isobutylpiperidin-4-yl)methyl)pyrazolo[1,5-a]pyridin-3-yl)dihydropyrimidine-2,4(1H,3H)-dione] | 58% | 42% | 502 nM | – | –
8 | COCC(F)(F)CN1CC[C@@H](Cc2ccn3ncc(N4CCC(=O)NC4=O)c3c2)C[C@@H]1C [Example 278, 1-(5-(((2S,4R)-1-(2,2-difluoro-3-methoxypropyl)-2-methylpiperidin-4-yl)methyl)pyrazolo[1,5-a]pyridin-3-yl)dihydropyrimidine-2,4(1H,3H)-dione] | – | – | 66 nM | 72% | 28%
9 | COC(=O)N1CCC(Cc2ccn3ncc(N4CCC(=O)NC4=O)c3c2)CC1 [Example 93] | 62% | 38% | 6520 nM | – | –
10 | O=C1CCN(c2cnn3ccc(CC4CCN(CC5CCC5)C4)cc23)C(=O)N1 (stereo not drawn) [Example 130] | 36% | 64% | 1320 nM | – | –
11 | CC(c1ccccc1)N1CCC(Cc2ccn3ncc(N4CCC(=O)NC4=O)c3c2)CC1 (stereo not drawn) [Example 26, 1-(5-((1-(1-phenylethyl)piperidin-4-yl)methyl)pyrazolo[1,5-a]pyridin-3-yl)dihydropyrimidine-2,4(1H,3H)-dione] | 76% | 24% | 297 nM | – | –
12 | O=C1CCN(c2cnn3ccc(CN4CCN5[C@@H](CCS5(=O)=O)C4)cc23)C(=O)N1 [Example 315, (S)-1-(5-((1,1-dioxidohexahydro-5H-isothiazolo[2,3-a]pyrazin-5-yl)methyl)pyrazolo[1,5-a]pyridin-3-yl)dihydropyrimidine-2,4(1H,3H)-dione] | 53% | 47% | 1020 nM | – | –
13 | Cc1cn(-c2cnn3ccc(CN4CCN(CC5CC5)[C@@H](C)C4)cc23)c(=O)[nH]c1=O [Example 362, (S)-1-(5-((4-(cyclopropylmethyl)-3-methylpiperazin-1-yl)methyl)pyrazolo[1,5-a]pyridin-3-yl)-5-methylpyrimidine-2,4(1H,3H)-dione] | 84% | 16% | 765 nM | – | –
14 | C[C@H]1CN(Cc2ccn3ncc(N4CCC(=O)NC4=O)c3c2)CCN1CC1CC2(C1)CC(F)(F)C2 [Example 326, (S)-1-(5-((4-((6,6-difluorospiro[3.3]heptan-2-yl)methyl)-3-methylpiperazin-1-yl)methyl)pyrazolo[1,5-a]pyridin-3-yl)dihydropyrimidine-2,4(1H,3H)-dione] | 87% | 13% | 49 nM | – | –
15 | Cn1nccc1CN1CCC(Cc2ccn3ncc(N4CCC(=O)NC4=O)c3c2)CC1 [Example 114] | 68% | 32% | 90 nM | – | –
16 | C[C@H]1CN(Cc2ccn3ncc(N4CCC(=O)NC4=O)c3c2)CCN1C1CC2(C1)CN(C)C2 [Example 336, (S)-1-(5-((3-methyl-4-(2-methyl-2-azaspiro[3.3]heptan-6-yl)piperazin-1-yl)methyl)pyrazolo[1,5-a]pyridin-3-yl)dihydropyrimidine-2,4(1H,3H)-dione] | 76% | 24% | 12000 nM | – | –
17 | O=C1CCN(c2cnn3ccc(CC4CCN(Cc5ccc(OC(F)(F)F)cc5)CC4)cc23)C(=O)N1 [Example 56, 1-(5-((1-(4-(trifluoromethoxy)benzyl)piperidin-4-yl)methyl)pyrazolo[1,5-a]pyridin-3-yl)dihydropyrimidine-2,4(1H,3H)-dione] | 63% | 37% | 204 nM | – | –

The next compounds have a lower DC50 than those just listed; values first:

Row | Dmax at 25 µM [1] | remaining activity at 25 µM (HEK-293T, read-out: WIZ Amax) | DC50 | Structure (SMILES) | Dmax [1] | remaining activity (HEK-293T, read-out: WIZ Amax)
18 | 86% | 14% | 14 nM | CC(C)CN1CC[C@H](Cc2ccn3ncc(N4CCC(=O)NC4=O)c3c2)C[C@H]1C [Example 153] | – | –
19 | 82% | 18% | 24 nM | C[C@H]1CN(Cc2ccn3ncc(N4CCC(=O)NC4=O)c3c2)CCN1CC1CC(F)(F)C1 [Example 205] | – | –
20 | 83% | 17% | 3 nM | CC(C)CC(C)(C)N1CCC(Cc2ccn3ncc(N4CCC(=O)NC4=O)c3c2)CC1 [Example 139, 1-(5-((1-(2,4-dimethylpentan-2-yl)piperidin-4-yl)methyl)pyrazolo[1,5-a]pyridin-3-yl)dihydropyrimidine-2,4(1H,3H)-dione] | – | –
21 | 63% | 37% | 33 nM | Cc1ccc(F)cc1CN1CCC(Cc2ccn3ncc(N4CCC(=O)NC4=O)c3c2)CC1 [Example 58, 1-(5-((1-(5-fluoro-2-methylbenzyl)piperidin-4-yl)methyl)pyrazolo[1,5-a]pyridin-3-yl)dihydropyrimidine-2,4(1H,3H)-dione] | – | –
22 | 81% | 19% | 23 nM | O=C1CCN(c2cnn3ccc(CN4CCN(CC5CCCC5)CC4)cc23)C(=O)N1 [Example 159] | – | –
23 | 84% | 16% | 8 nM | C[C@H]1C[C@H](Cc2ccn3ncc(N4CCC(=O)NC4=O)c3c2)CCN1C[C@@H]1CCC(F)(F)C1 [Example 306, 1-(5-(((2S,4R)-1-(((R)-3,3-difluorocyclopentyl)methyl)-2-methylpiperidin-4-yl)methyl)pyrazolo[1,5-a]pyridin-3-yl)dihydropyrimidine-2,4(1H,3H)-dione] | – | –
24 | 84% | 15% | 9 nM | C[C@H]1C[C@H](Cc2ccn3ncc(N4CCC(=O)NC4=O)c3c2)CCN1CCC(F)(F)F [Example 276, 1-(5-(((2S,4R)-2-methyl-1-(3,3,3-trifluoropropyl)piperidin-4-yl)methyl)pyrazolo[1,5-a]pyridin-3-yl)dihydropyrimidine-2,4(1H,3H)-dione] | – | –
25 | 85% | 15% | 5 nM | C[C@H]1CN(Cc2ccn3ncc(N4CCC(=O)NC4=O)c3c2)CCN1CC1CCOCC1 [Example 202] | – | –
